Reference: patent US20240115654A1, “INTRAVENOUS ADMINISTRATION OF ENGINEERED ANTIMICROBIAL AMPHIPHILIC PEPTIDES” (priority 2021, published 2024)
Converted amounts (≈) assume the structure as drawn. Peptide text beside a SMILES is read from it.

Key:
Type in all cases: cell-based
[1] = test system: Escherichia coli ATCC 25922 (QC); conditions: ATCC 25922
Experimental: (§1) Each peptide was formulated in PBS buffer prior to testing. Peptides of SEQ ID NO:5 and SEQ ID NO:8 were brought up in 100% DMSO with 0.002% polysorbate-80 at 1.28 mg/mL (40× the highest final test concentration of 32 mcg/mL). Final test concentration of DMSO was 2.5% in the assay at the first dilution for those two compounds.
(§2) Mueller Hinton II broth (MHB II; BD; Lot Nos. 6258541 and 7143896) was used for MIC testing of aerobic organisms. 0.002% polysorbate 80 (P80) was added to the test medium.
(§3) MIC values were determined using a broth microdilution procedure described by CLSI (1, 3). Automated liquid handlers (Multidrop 384, Labsystems, Helsinki, Finland; Biomek 2000 and Biomek FX, Beckman Coulter, Fullerton CA) were used to conduct serial dilutions and liquid transfers.
(§4) To prepare the drug mother plates, which would provide the serial peptide dilutions for the replicate daughter plates, the wells of columns 2-12 of standard 96-well microdilution plates (Costar 3795) were filled with 150 μl of the designated diluent for each row of peptide. The test articles and comparator compounds (300 μl at 40× the highest concentration to be tested) were dispensed into the appropriate wells in column 1. The Biomek 2000 was then used to make 2-fold serial dilutions in the mother plates from column 1 through column 11. The wells of Column 12 contained no drug and served as the organism growth control wells for the assay.
(§5) The daughter plates were loaded with 185 μL per well of MHB II using the Multidrop 384. The daughter plates were completed on the Biomek FX instrument which transferred 5 uL of peptide solution from each well of a mother plate to the corresponding well of each daughter plate in a single step. A standardized inoculum of each test organism was prepared per CLSI methods. The inoculum for each organism was dispensed into sterile reservoirs divided by length (Beckman Coulter), and the Biomek 2000 was used to inoculate the plates. Daughter plates were placed on the Biomek 2000 work surface in reverse orientation so that inoculation took place from low to high drug concentration. The plates were then inoculated with 10 μL of the inoculum resulting in a final cell density of approximately 5×10^5 CFU/mL, per well.
(§6) Plates were stacked 3-4 high, covered with a lid on the top plate, placed in plastic bags, and incubated at 35° C. for 16 to 20 hrs. Following incubation, the microplates were removed from the incubator and viewed from the bottom using a plate viewer. […] The MIC was read and recorded as the lowest concentration of peptide that inhibited visible growth of the organism.

[2] = test system: Staphylococcus aureus NRS382 (USA100; HA-MRSA); conditions: USA100
Experimental: as §1, §2, §3, §4, §5, §6

[3] = test system: Staphylococcus aureus ATCC 29213 (MSSA; QC); conditions: ATCC 29213
Experimental: as §1, §2, §3, §4, §5, §6

[4] = test system: Pseudomonas aeruginosa ATCC 27853 (non-MDR; QC); conditions: ATCC 27853
Experimental: as §1, §2, §3, §4, §5, §6

[5] = test system: Enterococcus faecalis ATCC 29212 (VSE; QC); conditions: ATCC 29212
Experimental: as §1, §2, §3, §4, §5, §6

[6] = test system: Pseudomonas aeruginosa ATCC BAA-2109 (MDR); conditions: ATCC BAA-2109
Experimental: as §1, §2, §3, §4, §5, §6

[7] = test system: Staphylococcus aureus ATCC 43300 (MRSA); conditions: ATCC 43300
Experimental: as §1, §2, §3, §4, §5, §6

[8] = test system: Enterococcus faecalis ATCC 700802 (V583 VRE); conditions: ATCC 700802
Experimental: as §1, §2, §3, §4, §5, §6

[9] = test system: Enterococcus faecium ATCC 51559 (VRE); conditions: ATCC 51559
Experimental: as §1, §2, §3, §4, §5, §6

[10] = test system: Streptococcus pyogenes ATCC 49399; conditions: ATCC 49399
Experimental: as §1, §2, §3, §4, §5, §6

[11] = test system: Acinetobacter baumannii ATCC BAA-1797 (MDR); conditions: ATCC BAA-1797
Experimental: as §1, §2, §3, §4, §5, §6

[12] = test system: Escherichia coli ATCC BAA-2471 (NDM-1); conditions: ATCC BAA-2471
Experimental: as §1, §2, §3, §4, §5, §6

[13] = test system: Acinetobacter baumannii ATCC 19606 (non-MDR); conditions: ATCC 19606
Experimental: as §1, §2, §3, §4, §5, §6

[14] = test system: Klebsiella pneumoniae ATCC BAA-1705 (KPC); conditions: ATCC BAA-1705
Experimental: as §1, §2, §3, §4, §5, §6

[15] = test system: Escherichia coli ATCC 35218 (ESBL); conditions: ATCC 35218
Experimental: as §1, §2, §3, §4, §5, §6

[16] = test system: Streptococcus pneumoniae ATCC 49619 (QC); conditions: ATCC 49619
Experimental: as §1, §2, §3, §4, §5, §6

Structure (SMILES)	MIC [1] [µg/mL]	MIC [2] [µg/mL]	MIC [3] [µg/mL]	MIC [4] [µg/mL]	MIC [5] [µg/mL]	MIC [6] [µg/mL]	MIC [7] [µg/mL]	MIC [8] [µg/mL]	MIC [9] [µg/mL]	MIC [10] [µg/mL]	MIC [11] [µg/mL]	MIC [12] [µg/mL]	MIC [13] [µg/mL]	MIC [14] [µg/mL]	MIC [15] [µg/mL]	MIC [16] [µg/mL]
CC(C)[C@H](N)C(=O)N[C@H](C(=O)N[C@@H](CCCNC(=N)N)C(=O)N[C@H](C(=O)N[C@H](C(=O)N[C@@H](CCCNC(=N)N)C(=O)N[C@@H](CCCNC(=N)N)C(=O)N[C@H](C(=O)N[C@H](C(=O)N[C@@H](CCCNC(=N)N)C(=O)N[C@H](C(=O)N[C@H](C(=O)N[C@@H](CCCNC(=N)N)C(=O)N[C@@H](CCCNC(=N)N)C(=O)O)C(C)C)C(C)C)C(C)C)C(C)C)C(C)C)C(C)C)C(C)C [SEQ ID NO: 7] (H-VVRVVRRVVRVVRR-OH; N-terminus and C-terminus assumed)	>32	>32	>32	>32	>32	>32	>32	>32	16 (≈ 9.15 µM)	16 (≈ 9.15 µM)	>32	16 (≈ 9.15 µM)	>32	>32	32 (≈ 18.3 µM)	>32
CC[C@H](C)[C@H](N)C(=O)N[C@@H](CCCNC(=N)N)C(=O)N[C@@H](CCCNC(=N)N)C(=O)N[C@@H](CCCNC(=N)N)C(=O)N[C@H](C(=O)N[C@@H](CCCNC(=N)N)C(=O)N[C@@H](CCCNC(=N)N)C(=O)N[C@H](C(=O)N[C@@H](CCCNC(=N)N)C(=O)N[C@@H](CCCNC(=N)N)C(=O)N[C@@H](CCCNC(=N)N)C(=O)N[C@H](C(=O)N[C@@H](CCCNC(=N)N)C(=O)N[C@@H](CCCNC(=N)N)C(=O)N[C@H](C(=O)N[C@@H](CCCNC(=N)N)C(=O)N[C@@H](CCCNC(=N)N)C(=O)N[C@@H](CCCNC(=N)N)C(=O)N[C@H](C(=O)N[C@@H](CCCNC(=N)N)C(=O)N[C@@H](CCCNC(=N)N)C(=O)O)[C@@H](C)CC)[C@@H](C)CC)[C@@H](C)CC)[C@@H](C)CC)[C@@H](C)CC [SEQ ID NO: 3] (H-IRRRIRRIRRRIRRIRRRIRR-OH; N-terminus and C-terminus assumed)	4 (≈ 1.32 µM)	8 (≈ 2.63 µM)	8 (≈ 2.63 µM)	4 (≈ 1.32 µM)	32 (≈ 10.5 µM)	2 (≈ 0.658 µM)	8 (≈ 2.63 µM)	>32	4 (≈ 1.32 µM)	16 (≈ 5.26 µM)	–	4 (≈ 1.32 µM)	8 (≈ 2.63 µM)	32 (≈ 10.5 µM)	4 (≈ 1.32 µM)	32 (≈ 10.5 µM)
CC(C)[C@H](N)C(=O)N[C@@H](Cc1c[nH]c2ccccc12)C(=O)N[C@@H](CCCNC(=N)N)C(=O)N[C@@H](Cc1c[nH]c2ccccc12)C(=O)N[C@H](C(=O)N[C@@H](CCCNC(=N)N)C(=O)N[C@@H](CCCNC(=N)N)C(=O)N[C@H](C(=O)N[C@@H](Cc1c[nH]c2ccccc12)C(=O)N[C@@H](CCCNC(=N)N)C(=O)N[C@@H](Cc1c[nH]c2ccccc12)C(=O)N[C@H](C(=O)N[C@@H](CCCNC(=N)N)C(=O)N[C@@H](CCCNC(=N)N)C(=O)N[C@H](C(=O)N[C@@H](Cc1c[nH]c2ccccc12)C(=O)N[C@@H](CCCNC(=N)N)C(=O)N[C@@H](Cc1c[nH]c2ccccc12)C(=O)N[C@H](C(=O)N[C@@H](CCCNC(=N)N)C(=O)N[C@@H](CCCNC(=N)N)C(=O)O)C(C)C)C(C)C)C(C)C)C(C)C)C(C)C [SEQ ID NO: 5] (H-VWRWVRRVWRWVRRVWRWVRR-OH; N-terminus and C-terminus assumed)	16 (≈ 5.1 µM)	8 (≈ 2.55 µM)	16 (≈ 5.1 µM)	>32	16 (≈ 5.1 µM)	16 (≈ 5.1 µM)	8 (≈ 2.55 µM)	16 (≈ 5.1 µM)	8 (≈ 2.55 µM)	32 (≈ 10.2 µM)	–	32 (≈ 10.2 µM)	16 (≈ 5.1 µM)	>32	16 (≈ 5.1 µM)	32 (≈ 10.2 µM)
CC(C)[C@H](N)C(=O)N[C@@H](Cc1c[nH]c2ccccc12)C(=O)N[C@@H](CCCNC(=N)N)C(=O)N[C@@H](Cc1c[nH]c2ccccc12)C(=O)N[C@H](C(=O)N[C@@H](CCCNC(=N)N)C(=O)N[C@@H](CCCNC(=N)N)C(=O)N[C@H](C(=O)N[C@@H](Cc1c[nH]c2ccccc12)C(=O)N[C@@H](CCCNC(=N)N)C(=O)N[C@@H](Cc1c[nH]c2ccccc12)C(=O)N[C@H](C(=O)N[C@@H](CCCNC(=N)N)C(=O)N[C@@H](CCCNC(=N)N)C(=O)O)C(C)C)C(C)C)C(C)C [SEQ ID NO: 6] (H-VWRWVRRVWRWVRR-OH; N-terminus and C-terminus assumed)	2 (≈ 0.954 µM)	0.5 (≈ 0.238 µM)	0.5 (≈ 0.238 µM)	16 (≈ 7.63 µM)	2 (≈ 0.954 µM)	8 (≈ 3.82 µM)	0.5 (≈ 0.238 µM)	4 (≈ 1.91 µM)	0.5 (≈ 0.238 µM)	4 (≈ 1.91 µM)	0.5 (≈ 0.238 µM)	1 (≈ 0.477 µM)	0.5 (≈ 0.238 µM)	4 (≈ 1.91 µM)	1 (≈ 0.477 µM)	8 (≈ 3.82 µM)
CC[C@H](C)[C@H](N)C(=O)N[C@@H](CCCNC(=N)N)C(=O)N[C@@H](CCCNC(=N)N)C(=O)N[C@@H](CCCNC(=N)N)C(=O)N[C@@H](CCCNC(=N)N)C(=O)N[C@@H](CCCNC(=N)N)C(=O)N[C@@H](CCCNC(=N)N)C(=O)N[C@H](C(=O)N[C@@H](CCCNC(=N)N)C(=O)N[C@@H](CCCNC(=N)N)C(=O)N[C@@H](CCCNC(=N)N)C(=O)N[C@@H](CCCNC(=N)N)C(=O)N[C@@H](CCCNC(=N)N)C(=O)N[C@@H](CCCNC(=N)N)C(=O)O)[C@@H](C)CC [SEQ ID NO: 2] (H-IRRRRRRIRRRRRR-OH; N-terminus and C-terminus assumed)	16 (≈ 7.55 µM)	8 (≈ 3.78 µM)	16 (≈ 7.55 µM)	>32	>32	8 (≈ 3.78 µM)	16 (≈ 7.55 µM)	>32	16 (≈ 7.55 µM)	32 (≈ 15.1 µM)	–	32 (≈ 15.1 µM)	32 (≈ 15.1 µM)	>32	16 (≈ 7.55 µM)	>32
